{
  "source": "patent US9320271B2",
  "about": "“Microbial composition” (Rohm and Haas Company, priority 2011, dated 2016)",
  "key": {"[1]": {"system": "Escherichia coli (E. coli—ATCC #10536)", "assay": "Synergy test: high resolution MBC microtiter plate assay, phosphate buffer containing 35% dipropylene glycol, 15 seconds contact", "assay_type": "cell-based", "conditions": "E. coli 10536; for MBC of the component acting alone (QA / QB; Qa or Qb where the other component is 0): complete kill in 15 seconds"}, "[2]": {"system": "Staphylococcus aureus (10788 strain)", "assay": "15 second contact kill test / antimicrobial efficacy of actives against S. aureus in water", "assay_type": "cell-based", "conditions": "0.1% 3 isopropyl 6 methyl catechol (IPMC) alone", "method": "Selected materials were also tested against a representative Grant positive Staphylococcus aureus. An overnight culture of Staphylococcus aureus (10788 strain) was inoculated onto a […] Soy Agar (TSA) plate and grown for ca. 18 hrs at 37° C. The culture S. aureus was washed from the plate using sterile saline (0.85% NaCl) solution and a sterile spreader and suspended in 50 ml saline. This suspension was separated into equal volumes and centrifuged at 4000 rpm for 15 minutes. […] Here, OD620 indicates the absorbance of a sample in a cuvette of 1.0 cm path length at a wavelength of 620 nm. This bacterial stock was used for assaying against antimicrobial actives (in triplicate). The following assay describes the testing of 8 materials using 6 dilutions across half of a 96-well micro titre plate (MTP). Using this approach it is possible to assay 16 actives (without replicates) with one full dilution plate, replicating this set up in two halves of the plate columns, 1-6 and 7-12. 1M solutions of the test actives were prepared in dimethylsulphoxide (DMSO). […] Aliquots (270 μl) of the materials at 1.11 times the final concentration were dispensed into the wells of the MTP along one column (A1-H1). This MTP was labelled as the “Screening plate”. In another MTP, labelled as the “Dilution plate”, […] of D/E neutralising solution from DIFCO Composition was added to column 1. The composition of the neutralising solution was as follows: pancreatic digest of casein, 5.0 g/L; […] Dextrose, 10 g/L, sodium thioglycollate, 1.0 g/L, sodium thiosulphate, 6.0 g/L; sodium bisulphite, 2.5 g/L; […] […] From the colony number in this segment, NMBS is calculated by the formula: NMBS=log {Ncol·10^DF·100/3} Here, Ncol is the colony count, and DF is the dilution factor taken from the MTP-well corresponding to the TSA plate segment (i.e. DF may range from 1 for the quench, to 6 for the highest dilution). […] Here, OD620 indicates the absorbance of a sample in a cuvette of 1.0 cm path length at a wavelength, of 620 nm. […]"}},
  "note": "Values joined by “and” are separate entries in the source; they are usually repeats but may differ in a detail not shown here. Identical values can stand only once.",
  "data": [
    {"smiles": "Cc1ccc(C(C)C)c(O)c1O", "note": "[3-isopropyl-6-methylbenzene-1,2-diol]", "values": [
      {"measurement": "SI (Synergy Index)", "setting": "[1]; at Qa and Qb, less than one = synergy", "result": 1.00},
      {"measurement": "MBC of the component acting alone (QA / QB; Qa or Qb where the other component is 0)", "setting": "[1]", "result": "1.0 weight % and 0.8 weight %"},
      {"measurement": "MBC of the component acting alone (QA / QB; Qa or Qb where the other component is 0)", "setting": "[1]; listed as 3-isopronyl-6-methylbenzene-1,2-diol", "result": 0.8, "unit": "weight %"},
      {"measurement": "S. aureus 6538 Log Reduction", "setting": "[2]", "result": "−0.07"}
    ]}
  ]
}
